Reference: patent US12187717B2, “Compound and use thereof in treating autoimmune diseases” (PARENCHYMA BIOTECH INC., priority 2022, dated 2025)

Legend:
[1] = system: DSS-induced inflammatory bowel disease; test: DSS-induced inflammatory bowel disease model: severity index and colon weight:length ratio; assay type: in vivo, C57BL/6 mice; conditions: 10 mg/kg oral daily, compared to solvent control
Method: On day 0 of the experiment, a 2.0% DSS solution prepared by dissolving DSS (Dextran sulfate sodium, MP biomedicals, Cat No. 160110) in […] was given for drinking to C57BL/6 mice (11 weeks old, female, 20±2 g) for 7 days. The 2.0% DSS solution was changed at an interval of 2 days. Sterile distilled water was provided for drinking from the 8th day of the experiment. Body weight and severity index were measured at an interval of 2 days from the 0th day of the experiment in order to confirm the onset of inflammatory bowel disease.
10 mg/kg of Compound 6 per mouse was completely dissolved in an ethanol-Cremophor EL mixture corresponding to 7.5% (v/v) of the administered dose, and then, was diluted in phosphate buffered saline to prepare the final ethanol:Cremophor EL:phosphate buffered saline (0.375:0.375:9.25, v/v/v), followed by oral administration of 200 μl daily for a total of 14 times from the 1st to 14th days of the experiment. An inflammatory bowel disease severity index was visually observed and recorded at an interval of 2 days according to a severity index system classified into 0 to 10 levels.
Inflammatory bowel disease symptoms were evaluated by summing the scores of three items according to the following items (Table 2).

[2] = system: neutrophilic asthma; test: Neutrophilic asthma model (LPS/OVA); assay type: in vivo, C57BL/6 mice; conditions: 10 mg/kg oral daily, 27th to 36th days, compared to solvent control
Method: Sensitization was induced in C57BL/6 mice (7 weeks old, female) by intranasally administering 10 μg of LPS (lipopolysaccharide, Sigma Aldrich, Cat No. L2630) and 75 μg of OVA (Ovalbumin, Sigma Aldrich, Cat No. A5503) diluted in phosphate buffered saline (20 μl in total) on the 0th, 1st, 2nd and 7th days of the experiment. From the 14th day of the experiment, 50 μg of OVA diluted in phosphate buffered saline was challenged by intranasal administration for a total of 8 times at an interval of 2 days a week until the 36th day. The intranasal administration was performed after anesthesia using an isoflurane inhalation anesthetic. In the compound 6 administration group according to an embodiment of the present invention, 10 mg/kg of Compound 6 per mouse was completely dissolved in an ethanol-Cremophor EL mixture corresponding to 7.5% (v/v) of the administered dose, and then, was diluted in phosphate buffered saline to prepare the final ethanol:Cremophor EL:phosphate buffered saline (0.375:0.375:9.25, v/v/v), followed by oral administration with 200 μl of the prepared solution daily for a total of 10 times from the 27th to the 36th days of the experiment.

[3] = system: Foxp3-expressing regulatory T cells (Treg); test: Production of Foxp3-expressing regulatory T cells from naive CD4 T cells (flow cytometry); assay type: cell-based, C57BL/6 mice; conditions: 3 days
Method: The spleen of C57BL/6 mice (8 to 12 weeks old, female) was excised, pulverized by adding RPMI medium, and then passed through a 40 μm cell strainer (BD Falcon), thereby obtaining a single cell suspension. The single cell suspension was centrifuged (1200 rpm, 5 minutes), and after discarding the supernatant, 1 ml of ACK lysis buffer was added, followed by stirring for 1 minute and then washing the same with RPMI medium. After the single cell suspension was centrifuged, T-cells were separated using a Mouse CD4 Naive T cell Enrichment Kit (Invitrogen). The separated T-cells were prepared by resuspending them in RPMI-fetal bovine serum (FBS) 10%+2-ME (mercaptoethanol) medium at 1×10^6/ml. For T-cell activation, 5 μg/ml anti-CD3 (eBioscience™) was dispensed by 100 μl onto a 96-well plate, reacted in a cell incubator (37° C., 5% CO2 incubator) for 4 hours, and washed with phosphate buffered saline to prepare the plate. The T-cells were dispensed by 200 μl onto the prepared plate, and each well was treated with 2 μg/ml of anti-CD28 (eBioscience™), 2 ng/ml of TGFβ-1 (R&D systems), and 100 U/ml of IL-2. Each 5 μl of Compounds 6 and 9 at a concentration of 2.5 μM diluted in RPMI-fetal bovine serum 10%+2-ME medium was used for treatment, followed by culturing the same in a cell incubator (37° C., 5% CO2 incubator) for 3 days. […]
In order to confirm the expression of Foxp3 protein, the recovered cells were placed in a 5 ml FACS tube (BD Falcon) and washed with 1 ml of phosphate buffered saline. […] The cells were washed twice with the Permeabilization buffer, suspended in 0.3 ml of FACS buffer, and measured by flow cytometry.
The promotion effects of Compound 6 and Comparative Example 1 on the production of “FoxP3-expressing regulatory T cells,” which play an important role in maintaining immune tolerance, were compared (FIG. 24). […] After 3 days, in order to confirm the effects of production of the regulatory T cells, the cultured cells were recovered and Foxp3 protein expression was measured in the same manner as in FIG. 4.

O=C(Cc1c[nH]c2ccc(Cl)cc12)Nc1nc2ccc(N3CCOCC3)cc2s1 [Compound 6, 2-(5-chloro-1H-indol-3-yl)-N-(6-morpholinobenzo[d]thiazol-2-yl)acetamide]
inflammatory bowel disease severity index ([1]; 10th day): statistically significant therapeutic effects
colon weight:length ratio ([1]; 15th day): significantly suppressed
number of neutrophils in the bronchoalveolar lavage (BAL) [2]: significantly decreased
production of Foxp3-expressing regulatory T cells ([3]; 2.5 μM and 5 μM, compared to Comparative Example 1): significantly increased
production of Foxp3-expressing regulatory T cells ([3]; 2.5 μM, compared to Vehicle): markedly increased
